# Values quoted from earlier work as cited in patent US20230354819A1 (priority 2020, published 2023).
# Bridge positions count the residues as written; N and C are the ends. Square brackets hold non-standard residues; d marks the D form. Peptide text beside a SMILES is read from it. * marks the point of attachment. ξ: configuration not given here. Pentadecanoyl(3ξ-OH,15-Gua) = N=C(N)NCCCCCCCCCCCCC(O)CC(=O)*; d(aThr) = C[C@@H](O)[C@@H](N)C(=O)O; Thr(3ξ) = CC(O)[C@H](N)C(=O)O; ξY = NC(Cc1ccc(O)cc1)C(=O)O
# How the values were obtained:
# [1] = system: plant pathogenic fungi such as Fusarium oxysporum, Aspergillus niger, Aspergillus oryzae, and Penicillium thomii; conditions: J. Antibiotics 49(2), 129-135, 1996; 50(3), 220-228, 1997
# [2] = system: Fusarium oxysporum; conditions: WO 2006/016558
# [3] = system: Staphylococcus aureus; set-up: unit not given here; conditions: variety of clinically relevant fungi and gram-positive bacteria such a Staphylococcus aureus; ChemMedChem 7, 871-882, 2012
Compound,inhibition of plant pathogenic fungi [1],inhibition of growth of Fusarium oxysporum [2],MIC value range [3]
CC(C)[C@@H]1NC(=O)[C@@H](C(C)C)NC(=O)[C@@H](NC(=O)CC(O)CCCCCCCCCCCCN=C(N)N)C(C)OC(=O)[C@@H](C)NC(=O)[C@@H](CCC(N)=O)NC(=O)[C@@H]([C@H](C)O)NC1=O (stereo in doubt) [fusaricidin B],inhibit plant pathogenic fungi,inhibit growth,
"CC1OC(=O)[C@@H](C)NC(=O)[C@@H](CC(N)=O)NC(=O)[C@@H]([C@H](C)O)NC(=O)C(Cc2ccc(O)cc2)NC(=O)[C@@H](C(C)C)NC(=O)[C@H]1NC(=O)CC(O)CCCCCCCCCCCCN=C(N)N (stereo partly shown) [fusaricidin C] ({Pentadecanoyl(3ξ-OH,15-Gua)}-[Thr(3ξ)][dV][ξY][dT][dN][dA]; ester 1-C)",inhibit plant pathogenic fungi,,
"CC1OC(=O)[C@@H](C)NC(=O)[C@@H](CCC(N)=O)NC(=O)[C@@H]([C@H](C)O)NC(=O)C(Cc2ccc(O)cc2)NC(=O)[C@@H](C(C)C)NC(=O)[C@H]1NC(=O)CC(O)CCCCCCCCCCCCN=C(N)N (stereo partly shown) [fusaricidin D] ({Pentadecanoyl(3ξ-OH,15-Gua)}-[Thr(3ξ)][dV][ξY][dT][dQ][dA]; ester 1-C)",inhibit plant pathogenic fungi,,
"CC(C)[C@@H]1NC(=O)[C@@H](C(C)C)NC(=O)[C@@H](NC(=O)CC(O)CCCCCCCCCCCCN=C(N)N)[C@@H](C)OC(=O)[C@@H](C)NC(=O)[C@@H](CC(N)=O)NC(=O)[C@@H]([C@@H](C)O)NC1=O (stereo partly shown) [fusaricidin A] ({Pentadecanoyl(3ξ-OH,15-Gua)}-T[dV]V[d(aThr)][dN][dA]; ester 1-C)",inhibit plant pathogenic fungi,inhibit growth,0.78-3.12
